# According to article PMC7024208, “In Silico and In Vitro Experimental Studies of New Dibenz[b,e]oxepin-11(6H)one O-(arylcarbamoyl)-oximes Designed as Potential Antimicrobial Agents” (Molecules, 2020):
# Read-outs that look alike come from different tables or passages of the source.
# Columns and labels:
# [1] = test system: E. coli ATCC 25922; assay: Qualitative antimicrobial screening, adapted disk diffusion; assay type: cell-based, Escherichia coli; parameters: zone of inhibition: dose or concentration left out as unconfirmed; conditions: for zone of inhibition at 5000 µg/mL (stock): ATCC25922, read-out: growth inhibition diameter
# Experimental: (§1) The antimicrobial activities of the synthesized compounds were determined against ATCC reference and clinical microbial strains, i.e., Bacillus subtilis ATCC 6633, Staphylococcus aureus ATCC 25923, Escherichia coli ATCC 25922, Klebsiella pneumoniae 350, Pseudomonas aeruginosa 1671 and Candida albicans ATCC 10231, using as positive controls the antibiotic ticarcillin and the antifungal agent fluconazole. Microbial suspensions of 1.5 × 10^8 CFU/mL corresponding to 0.5 McFarland density obtained from 15–18 h bacterial cultures developed on solid media were used in our experiments. The antimicrobial activity was tested on Mueller-Hinton Agar (MHA) medium, while a Yeast Peptone Glucose (YPG) medium was used in case of C. albicans. The obtained compounds were solubilized in DMSO and the starting stock solution was of 5000 μg/mL concentration. The qualitative screening was performed by an adapted disk diffusion method as previously reported.
# [2] = test system: C. albicans ATCC 10231; assay: as above; assay type: cell-based, Candida albicans; parameters: zone of inhibition: dose or concentration left out as unconfirmed; conditions: for zone of inhibition at 5000 µg/mL (stock): ATCC10231, read-out: growth inhibition diameter
# Experimental: as §1
# [3] = test system: S. aureus ATCC 25923; assay: as above; assay type: cell-based, Staphylococcus aureus; parameters: zone of inhibition: dose or concentration left out as unconfirmed; conditions: for zone of inhibition at 5000 µg/mL (stock): ATCC25923, read-out: growth inhibition diameter
# Experimental: as §1
# [4] = Cytotoxicity, CellTiter Assay; assay type: cell-based; conditions: human, HCT8 cells, 400–10 µg/mL tested
# Experimental: (§2) For the in vitro assessment of the cytotoxic effect, the HCT8 cells and the CellTiter Assay kit (Promega, Madison, WI, USA) and Annexin V-FITC Apoptosis Detection Kit I (BD Bioscience Pharmingen, Franklin Lakes, NJ, USA) were used. Briefly, for CellTiter Assay, 1 × 10^4 cells/well were plated in 96 well plate and 24 h after, were treated with the new compound at final concentration between 400 µg/mL–10 µg/mL. The viability was evaluated after 24 h by adding CellTiter aqueous solution and reading to spectrophotometer according to the manufacturer indications. The IC50 were calculated from the percent of viability reported to untreated cells using on line tools https://www.aatbio.com/tools/ic50-calculator. For Annexin V-FITC Apoptosis Detection Kit I, 5 × 10^5 cells were seeded in 3.5 cm diameter Petri dish and treated with 100 µg/mL compounds solution for 24 h. The total cells were resuspended in 100 µL of binding buffer, and stained with 5 µL Annexin V-FITC and 5 µL propidium iodide for 10 min in dark. At least 10,000 events from each sample were acquired using a flow cytometer (Beckman Coulter, Indianapolis, IN, USA). The percentage of cells affected by the treatment was determined by subtracting the percentage of apoptotic/necrotic cells in the untreated population from percentage of apoptotic cells in the treated population.
# [5] = test system: E. coli ATCC 25922; assay: MIC by liquid medium microdilution; assay type: cell-based; conditions: Escherichia coli
# Experimental: as §1
# (§3) The quantitative assay of the antimicrobial activity was performed by the liquid medium microdilution method, in 96 multi-well plates, in order to establish the minimal inhibitory concentration (MIC). In this purpose, serial two-fold dilutions of the compounds ranging between 5000 and 4.8 µg/mL were performed in a 200 µL volume of broth and each well was seeded with 50 µL of microbial inoculum. Sterility control (wells containing only culture medium) and culture controls (wells containing culture medium seeded with the microbial inoculum) were used. The influence of the DMSO solvent was also quantified in a series of wells containing DMSO [36], diluted accordingly with the dilution scheme used for the compounds and for the positive controls.
# [6] = test system: S. aureus ATCC 25923; assay: MIC by liquid medium microdilution; assay type: cell-based; conditions: Staphylococcus aureus
# Experimental: as §1, §3
# [7] = test system: C. albicans ATCC 10231; assay: MIC by liquid medium microdilution; assay type: cell-based; conditions: Candida albicans
# Experimental: as §1, §3
# [8] = Annexin V-FITC/propidium iodide apoptosis analysis by flow cytometry; assay type: cell-based; conditions: human, HCT8 cells, Annexin V-FITC/PI, read-out: viable cells (Q4)
# Experimental: as §2
# [9] = test system: B. subtilis ATCC 6633; assay: Qualitative antimicrobial screening, adapted disk diffusion; assay type: cell-based, Bacillus subtilis; parameters: zone of inhibition: dose or concentration left out as unconfirmed; conditions: for growth inhibition diameter / zone of inhibition at 5000 µg/mL (stock): B. subtilis ATCC 6633, adapted diffusion assay; for zone of inhibition at 5000 µg/mL (stock): ATCC6633, read-out: growth inhibition diameter
# Experimental: as §1
# [10] = test system: B. subtilis ATCC 6633; assay: MIC by liquid medium microdilution; assay type: cell-based, Bacillus subtilis; conditions: B. subtilis ATCC 6633, 24 h at 37 °C
# Experimental: as §1, §3
# [11] = test system: K. pneumoniae 1771; assay: Qualitative antimicrobial screening, adapted disk diffusion; assay type: cell-based, Klebsiella pneumoniae; parameters: zone of inhibition: dose or concentration left out as unconfirmed; conditions: for zone of inhibition at 5000 µg/mL (stock): Klebsiella pneumoniae, K. pneumoniae 1771, adapted diffusion assay, read-out: growth inhibition diameter
# [12] = test system: S. aureus ATCC 25923; assay: Antibiofilm activity (MBEC), micro-titer method on plastic inert substratum; assay type: cell-based, Staphylococcus aureus; conditions: S. aureus ATCC 25923 biofilm on plastic substratum
# Experimental: (§4) The assessment of the new compounds influence on the microbial ability to colonize the plastic inert substratum was performed by the micro-titer method, following previously described protocols. The absorbance at 490 nm was measured with an LB 911 ELISA reader (Apollo, Berthold Technologies GmbH & Co. KG, Bad Wildbad, Germany). All biological experiments were performed in triplicates.
# [13] = test system: P. aeruginosa ATCC 27853; assay: Qualitative antimicrobial screening, adapted disk diffusion; assay type: cell-based; parameters: zone of inhibition: dose or concentration left out as unconfirmed; conditions: Pseudomonas aeruginosa; for zone of inhibition at 5000 µg/mL (stock): ATCC27853, P. aeruginosa ATCC 27853, adapted diffusion assay, read-out: growth inhibition diameter
# [14] = test system: B. subtilis ATCC 6633; assay: Antibiofilm activity (MBEC), micro-titer method on plastic inert substratum; assay type: cell-based, Bacillus subtilis; conditions: B. subtilis ATCC 6633 biofilm on plastic substratum
# Experimental: as §4
# [15] = test system: C. albicans ATCC 10231; assay: as above; assay type: cell-based, Candida albicans; conditions: C. albicans ATCC 10231 biofilm on plastic substratum
# Experimental: as §4
# [16] = Escherichia coli, E. coli ATCC 25922, adapted diffusion assay
# [17] = Candida albicans, C. albicans ATCC 10231, adapted diffusion assay
# [18] = Staphylococcus aureus, S. aureus ATCC 25923, adapted diffusion assay
smiles,measurement,setting,value
"O=C(Nc1ccc(F)cc1)ON=C1c2ccccc2COc2ccccc21 [Compound 7b, 6,11-Dihydrodibenz[b,e]oxepin-11(6H)one O-(4-fluorophenyl-carbamoyl)oxime]",zone of inhibition,"[1]; Escherichia coli, ATCC25922, read-out: growth inhibition diameter",0 mm
same,zone of inhibition,"[2]; Candida albicans, ATCC10231, read-out: growth inhibition diameter",0 mm
same,zone of inhibition,"[3]; Staphylococcus aureus, ATCC25923, read-out: growth inhibition diameter",0 mm
same,IC50 at 24 h,[4],252 µg/mL
same,MIC,"[5]; ATCC25922, 24 h",> 5000 µg/mL
same,MIC,"[6]; ATCC25923, 24 h",> 5000 µg/mL
same,MIC,"[7]; ATCC10231, 24 h",> 5000 µg/mL
same,"viability at 24 h, 100 µg/mL",[8],84.3%
same,growth inhibition diameter,[9],active exclusively on B. subtilis
same,zone of inhibition,"[9]; Bacillus subtilis, ATCC6633, read-out: growth inhibition diameter",7 mm
same,MIC,[10],4.8 µg/mL
same,MIC,"[10]; Bacillus subtilis, ATCC6633, 24 h",4.8 to 39 µg/mL
same,zone of inhibition,"[11]; Klebsiella pneumoniae, 1771, read-out: growth inhibition diameter",0 mm
same,MBEC,[12],19.5 µg/mL
same,zone of inhibition,"[13]; ATCC27853, read-out: growth inhibition diameter",0 mm
"O=C(Nc1ccc(Cl)cc1)ON=C1c2ccccc2COc2ccccc21 [Compound 7d, 6,11-Dihydrodibenz[b,e]oxepin-11(6H)one O-(4-chlorophenyl-carbamoyl)oxime]",zone of inhibition at 5000 µg/mL (stock),[1]; [16],0 mm
same,zone of inhibition at 5000 µg/mL (stock),[2]; [17],0 mm
same,zone of inhibition at 5000 µg/mL (stock),[3]; [18],0 mm
same,zone of inhibition at 5000 µg/mL (stock),[9]; Bacillus subtilis,0 mm
same,zone of inhibition at 5000 µg/mL (stock),[11],0 mm
same,zone of inhibition at 5000 µg/mL (stock),[13],0 mm
"O=C(Nc1ccc(Cl)cc1Cl)ON=C1c2ccccc2COc2ccccc21 [Compound 7e, 6,11-Dihydrodibenz[b,e]oxepin-11(6H)one O-(2,4-dichlorophenyl-carbamoyl)oxime]",zone of inhibition at 5000 µg/mL (stock),[1]; [16],0 mm
same,zone of inhibition at 5000 µg/mL (stock),[2]; [17],0 mm
same,zone of inhibition at 5000 µg/mL (stock),[3]; [18],0 mm
same,zone of inhibition at 5000 µg/mL (stock),[9]; Bacillus subtilis,0 mm
same,zone of inhibition at 5000 µg/mL (stock),[11],0 mm
same,zone of inhibition at 5000 µg/mL (stock),[13],0 mm
"O=C(Nc1cccc(C(F)(F)F)c1)ON=C1c2ccccc2COc2ccccc21 [Compound 7f, 6,11-Dihydrodibenz[b,e]oxepin-11(6H)one O-(3-trifluoromethylphenyl-carbamoyl)oxime]",growth inhibition diameter,"[1]; E. coli ATCC 25922, adapted diffusion assay",inhibited the microbial growth
same,zone of inhibition at 5000 µg/mL (stock),[1]; [16],10 mm
same,growth inhibition diameter,"[2]; C. albicans ATCC 10231, adapted diffusion assay",inhibited the microbial growth
same,zone of inhibition at 5000 µg/mL (stock),[2]; [17],12 mm
same,growth inhibition diameter,"[3]; S. aureus ATCC 25923, adapted diffusion assay",inhibited the microbial growth
same,zone of inhibition at 5000 µg/mL (stock),[3]; [18],8 mm
same,IC50 at 24 h,[4],54.3 µg/mL
same,MIC,"[5]; ATCC25922, E. coli ATCC 25922, 24 h at 37 °C, read-out: MIC",78 µg/mL
same,MIC,"[6]; ATCC25923, S. aureus ATCC 25923, 24 h at 37 °C, read-out: MIC",4.8 µg/mL
same,"viability at 24 h, 100 µg/mL",[8],14.8%
same,growth inhibition diameter,[9],inhibited the microbial growth
same,zone of inhibition at 5000 µg/mL (stock),[9]; Bacillus subtilis,11 mm
same,zone of inhibition at 5000 µg/mL (stock),[11],0 mm
same,MBEC,[14],39 µg/mL
same,MBEC,[12],39 µg/mL
same,zone of inhibition at 5000 µg/mL (stock),[13],0 mm
"Cc1ccc2c(c1)C(=NOC(=O)Nc1ccc(Cl)cc1Cl)c1ccccc1CO2 [Compound 7g, 2-Methyl-6,11-dihydro-dibenz[b,e]oxepin-11(6H)one O-(2,4-dichlorophenyl-carbamoyl)oxime]",zone of inhibition at 5000 µg/mL (stock),[1]; [16],0 mm
same,zone of inhibition at 5000 µg/mL (stock),[2]; [17],0 mm
same,zone of inhibition at 5000 µg/mL (stock),[3]; [18],0 mm
same,zone of inhibition at 5000 µg/mL (stock),[9]; Bacillus subtilis,0 mm
same,zone of inhibition at 5000 µg/mL (stock),[11],0 mm
same,zone of inhibition at 5000 µg/mL (stock),[13],0 mm
"CCc1ccc2c(c1)C(=NOC(=O)Nc1ccccc1)c1ccccc1CO2 [Compound 7h, 2-Ethyl-6,11-dihydro-dibenz[b,e]oxepin-11(6H)one O-(phenyl-carbamoyl)oxime]",zone of inhibition at 5000 µg/mL (stock),[1]; [16],0 mm
same,zone of inhibition at 5000 µg/mL (stock),[2]; [17],0 mm
same,zone of inhibition at 5000 µg/mL (stock),[3]; [18],0 mm
same,zone of inhibition at 5000 µg/mL (stock),[9]; Bacillus subtilis,0 mm
same,zone of inhibition at 5000 µg/mL (stock),[11],0 mm
same,zone of inhibition at 5000 µg/mL (stock),[13],0 mm
"CCc1ccc2c(c1)C(=NOC(=O)Nc1ccc(F)cc1)c1ccccc1CO2 [Compound 7i, 2-Ethyl-6,11-dihydro-dibenz[b,e]oxepin-11(6H)one O-(4-fluorophenyl-carbamoyl)oxime]",zone of inhibition at 5000 µg/mL (stock),[1]; [16],0 mm
same,zone of inhibition at 5000 µg/mL (stock),[2]; [17],0 mm
same,zone of inhibition at 5000 µg/mL (stock),[3]; [18],0 mm
same,zone of inhibition at 5000 µg/mL (stock),[9]; Bacillus subtilis,0 mm
same,zone of inhibition at 5000 µg/mL (stock),[11],0 mm
same,zone of inhibition at 5000 µg/mL (stock),[13],0 mm
"CCc1ccc2c(c1)C(=NOC(=O)Nc1ccc(Cl)cc1Cl)c1ccccc1CO2 [Compound 7j, 2-Ethyl-6,11-dihydro-dibenz[b,e]oxepin-11(6H)one O-(2,4-dichlorophenyl-carbamoyl)oxime]",zone of inhibition at 5000 µg/mL (stock),[1]; [16],0 mm
same,zone of inhibition at 5000 µg/mL (stock),[2]; [17],0 mm
same,zone of inhibition at 5000 µg/mL (stock),[3]; [18],0 mm
same,zone of inhibition at 5000 µg/mL (stock),[9]; Bacillus subtilis,0 mm
same,zone of inhibition at 5000 µg/mL (stock),[11],0 mm
same,zone of inhibition at 5000 µg/mL (stock),[13],0 mm
"OC(Cn1cncn1)(Cn1cncn1)c1ccc(F)cc1F [Fluconazole, fluconazole, reference compound]",MBEC,[15],39 µg/mL
same,zone of inhibition at 5000 µg/mL (stock),[2]; [17],10 mm
same,MIC,"[7]; ATCC10231, C. albicans ATCC 10231, 24 h at 37 °C, read-out: MIC",4.8 µg/mL
